In US20010046491A1, “Tumor radiosensitization with mutant thymidine kinase in combination with a prodrug” (priority 2000, published 2001):

Tested on: rat RT2 glioma cells
Assay: MTT growth/toxicity assay of adenovirus-infected RT2 cells exposed to GCV or ACV
Assay type: cell-based
Details: 1-100 microM; for effect of prodrug on cell growth/toxicity (MTT): control AdCMV (empty vector)-infected RT2 cells, 5 days
Text: FIG. 2. Mutant HSV-TK75 sensitizes rat RT2 glioma cells to GCV and ACV more efficiently than wild type HSV-TK. Rat RT2 cells were infected with AdCMV (empty vector), AdCMV-TK, or AdCMV-TK75. At 2 days postinfection, cells were trypsinized, serially diluted, seeded in microtiter plates, and exposed to various doses of ACV or GCV. After 5 days, the plates were processed for growth/toxicity by MTT assay. (Contessa et al., 1999). Values were normalized to values from cells that were infected but not treated with GCV or ACV.
RT2 cells (a rat glioma cell line derived from Fischer 344 rats (Wilfong et al. 1973) that form tumors with features typical of human glioblastoma (Mahaley et al, 1977) were cultured in Dulbecco's modified Eagle's medium with 10% fetal bovine serum supplemented with penicillin/strepto-mycin. (Brust et al., 2000). Infected cells were exposed to Zovirax/ACV (manufactured by Glaxo Wellcome, Chapel Hill, N.C.) or GCV (kindly provided by Syntex, Palo Alto, Calif.) added to the medium. Cells were irradiated in medium with a ^60Co γ irradiator (Picker Zonegard V4 M60; Picker Interational, Cleveland, Ohio) set at 1 Gy/minute. Cell viability was determined by the 3-(4,5-dimethylthiazol-2-yl)-2,5-[…] bromide (MTT) assay. (Contessa et al, 1999). Terminal deoxynucleotidyltransferase-mediated deoxyuridine triphosphate nick end labeling assays were carried out with an ApopTag Direct kit from Oncor (Gaithersburg, Md.), according to the manufacturer's instructions, to provide a measurement of apoptosis.
It was subsequently determined whether infection of RT2 cells with the adenovirus expressing mutant HSV-TK 75 was able to predispose RT2 cells to killing by GCV and ACV more efficiently than cells infected with virus expressing wild type HSV-TK. At 2 days postinfection, infected cells were exposed to increasing concentrations (1-100 microM) of either GCV or ACV. As a control, we used an adenovirus(AdCMV) carrying no transgene.

| Structure (SMILES) | cell killing, comparison of prodrugs (AdCMV-TK-infected RT2 cells) | effect of prodrug on cell growth/toxicity (MTT) |
| --- | --- | --- |
| Nc1nc(O)c2ncn(COC(CO)CO)c2n1 [GCV, ganciclovir] | more effective than with ACV | little to no effect |
| Nc1nc2c(ncn2COCCO)c(=O)[nH]1 [ACV, acyclovir] |  | little to no effect |
